Values quoted from earlier work in patent US5908764A, “Methods and compositions for increasing production of erythromycin” (Solidago AG, priority 1997, dated 1999).

Key:
[1] = molecular target: Vitreoscilla hemoglobin (VHb) (Vitreoscilla stercoraria, UniProt P04252); details: koff rate for oxygen; Orii and Webster, 1986
[2] = molecular target: horse heart myoglobin (Equus caballus, UniProt P68082); details: oxygen affinity; Wittenberg et al., 1985
Chain of horse heart myoglobin (P68082 whole entry): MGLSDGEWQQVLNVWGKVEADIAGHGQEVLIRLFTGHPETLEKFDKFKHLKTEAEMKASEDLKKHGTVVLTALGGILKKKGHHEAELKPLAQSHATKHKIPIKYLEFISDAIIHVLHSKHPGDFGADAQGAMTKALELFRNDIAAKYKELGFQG

Q: For O=O [oxygen], which koff [1] is on record?
A: Its koff is 5600 s⁻¹.

Q: And the Kd [2]?
A: Its Kd is 790 nM.
